# Patent publication US6544966B1, “Agents promoting laminin production in skin cells” (Shiseido Company, Ltd., priority 1998, dated 2003)
# Values joined by “and” are separate entries in the source; they are usually repeats but may differ in a detail not shown here. Equal entries are not always repeated.
# System: epidermic stratum corneum cells
# Experiment: Tests for the ability to produce laminin 5 (culture of epidermic stratum corneum cells, sandwich ELISA)
# Type: cell-based, human
# Procedure: Epidermic stratum corneum cells were isolated from the human preputium and cultured in an epidermic cell growth medium (KGM) having a low calcium concentration. To this culture medium were added bovine pituitary extract and EGF. After the cells were cultured in KGM up to the fourth generation, and treated with trypsin and EDTA to suspend adherent cells. Then, the culture was filtered to remove cell aggregates and thereby obtain a homogeneous cell suspension. The cells were collected by centrifugation and resuspended in DMEM-F12 (2:1)-0.1% BSA so as to give a cell density of 8×10^4 per ml. 0.5 ml each of this cell suspension was added to 0.5 ml of the same medium containing a twofold concentration of each test sample. Using a 24-well plate, incubation was carried out at 37° C. for 24 hours. After completion of the incubation, the culture supernatant was transferred to an Eppendorf tube and centrifuged at 15,000 rpm for 5 minutes. The supernatant was transferred to a new tube and stored at−20° C. till the day for the determination of laminin 5. In order to solubilize laminin 5 in the cells and bound to the culture plastics, a tris-HCl buffer (pH 7.4) containing various surfactants was added to each well and allowed to stand at −20° C. overnight. On the following day, the mixture was ultrasonicated and frozen again. On the following day, the mixture was thawed again and centrifuged at 15,000 rpm for 5 minutes. The supernatant was transferred to a tube and stored at −20° C. till the day for the determination of laminin 5.
# Laminin 5 present in the culture supernatant and the cell layer was determined by the sandwich ELISA method. A monoclonal antibody (BM165) to the laminin α3 chain of laminin 5 was attached to a solid layer of a 96-well ELISA plate. In order to measure laminin 5 in a sandwiched manner, a monoclonal antibody (6F12) to the laminin β3 chain was previously biotinized (b-6F12) and used as the other antibody. […] A sample was added to each of the wells in which a 3% gelatin-phosphate buffer solution containing b-6F12 had previously been placed. The final degree of dilution of the sample in the wells was 1/4 for the culture medium and 1/10 for the cell layer. After the antigen-antibody reaction was carried out at 37° C. for 2 hours, the wells were washed, and an avidin HRP (horseradish peroxidase) solution was added thereto and reacted for a period of 30 minutes to 1 hour. After washing, a solution of ABTS serving as a substrate for HRP was added thereto and the absorbance at 405 nm was measured with an ELISA plate reader. A calibration curve was constructed over a range of 0 to 40 ng/ml.
# The yield of laminin 5 was expressed by the sum of the amount liberated into the culture medium and the amount remaining in the cell layer.
row,Substance,Relative yield of laminin 5 based on control with no addition (%) Mean ± Standard deviation
1,lysophosphatidic acid [LPA-C18: 1],225.4 ± 12.5% and 254.0 ± 8.7%
2,"lysophosphatidylcholine [LPC-C12: 0, reference compound]",88.6 ± 5.1%
3,lysophosphatidylcholine [LPC-C14: 0],100.8 ± 5.6%
4,lysophosphatidylcholine [LPC-C16: 0],104.5 ± 3.3%
5,lysophosphatidylcholine [LPC-C18: 0],112.4 ± 8.0%
6,lysophosphatidylcholine [LPC-C18: 1],112.7 ± 6.7% and 147.4 ± 5.2%
7,lysophosphatidylcholine [LPC-C18: 2],133.6 ± 1.3% and 174.0 ± 5.4%
